# Reference: patent US7741372B2, “Guanylhydrazones useful for treating diseases associated with T cell activation” (Cytokine PharmaSciences, Inc., priority 1996, dated 2010)
# Columns and labels:
# [1] = system: HIV-1; settings: AIDS patients; cited from earlier work
# [2] = system: HIV 1-LAV; assay: HIV replication in PHA-activated primary T cells, reverse transcriptase (RT) assay; format: cell-based
# Experimental: (§1) Cell lysates were prepared for immunoprecipitation and immunoblotting 15 minutes after administration of LPS. In FIGS. 2B, 2C and 2D PHA-activated T cells were pretreated with control diluent or various concentrations of CNI-1493 for one hour, infected with HIV 1-LAV as in FIG. 1, and cultured for 10 days. FIG. 2B is a graph of dose-dependent inhibition by CNI-1493 of HIV-infection as assessed by the accumulation of reverse transcriptase (RT) at day 6 of culture. FIG. 2C is a graph of HIV inhibition by […] CNI-1493 over time. FIG. 2D is an immunoblot of phospho-p38 MAPK expression in HIV-1 infected cells on day 6 after culture treated with/without […] CNI-1493.
# This example illustrates a role for the p38 MAP kinase pathway in HIV-1 infection of primary T cells, specifically addressing the hypothesis that activation of p38 MAPK is required for HIV-1 infection of primary T lymphocytes. For studies of human T cells, buffy coats were obtained by elutriation from normal human donors to the Long Island Blood Bank Services. Peripheral blood mononuclear cells (PBMC's) were isolated by density gradient centrifugation through Ficoll-Hypaque (Hypaque, Pharmacia). […]
# Primary T cells activated with PHA were pretreated (or not) with CNI-1493 for one hour, infected with the LAV strain of HIV, and RT activity measured at various time points after infection, up to 10 days.
# [3] = molecular target: T1, p38 MAP kinase (Homo sapiens, UniProt Q16539); assay: p38 MAP kinase activity (GST-ATF2 phosphorylation) in Jurkat cells stimulated with anti-CD3/anti-CD28; format: cell-based
# T1 construct: Endogenous p38 was immunoprecipitated with polyclonal p38 antibody; endogenous in cells; host or cells: Jurkat cells (ATCC)
# T1 sequence (Q16539 whole entry): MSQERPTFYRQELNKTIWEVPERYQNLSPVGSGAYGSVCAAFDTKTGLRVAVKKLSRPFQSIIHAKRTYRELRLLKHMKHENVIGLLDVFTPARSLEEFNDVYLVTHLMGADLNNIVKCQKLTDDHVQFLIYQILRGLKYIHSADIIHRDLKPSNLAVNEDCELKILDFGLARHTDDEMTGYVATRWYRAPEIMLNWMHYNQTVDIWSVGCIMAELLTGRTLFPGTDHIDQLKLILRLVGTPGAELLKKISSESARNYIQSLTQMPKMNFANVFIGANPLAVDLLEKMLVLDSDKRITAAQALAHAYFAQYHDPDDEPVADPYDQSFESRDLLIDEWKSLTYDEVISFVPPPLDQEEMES
# From the text: For studies of human T cells, buffy coats were obtained by elutriation from normal human donors to the Long Island Blood Bank Services. Peripheral blood mononuclear cells (PBMC's) were isolated by density gradient centrifugation through Ficoll-Hypaque (Hypaque. Pharmacia); typically one preparation yielded 200×10^6 cells. T cells were isolated by passing through a T cell column (R&D) as per manufacturer's instructions. Jurkat cells were obtained from ATCC and maintained in DMEM containing 10% heat-inactivated fetal bovine serum, antibiotics and L-glutamine.
# A rabbit polyclonal antibody against p38, and the recombinant GST-AFT2 plasmid where a gift of Dr. Roger Davis (Howard Hughes Institute, Worcester, Mass.). A GST-AFT2 fusion protein was purified by affinity chromatography using glutatione-agarose, as per manufacturer's instructions (Pharmacia, Inc.). The human monoclonal anti-CD3 antibody was purchased from Pharmingen and a human monoclonal anti-CD28 antibody was purchased.
# Whole cell lysates were prepared using kinase lysis buffer, containing a final concentration of 20 mM Tris pH 7.5, 10% glycerol, 1% Triton X-100, 0.137M NaCl, 25 mM B-glycerophosphate, 2 mM EDTA, 1 mM orthovanadate, 2 mM pyrophosphate, 10 μg/ml Leupeptin, 1 mM PMSF. Proteins were fractionated on a 12% SDS-PAGE gel, transferred by electrophoresis to PVDF membranes (Biorad, Inc.) and probed with a 1:1000 dilution of a rabbit polyclonal antibody that immunospecifically recognizes phosphorylated human p38 MAPK (Santa Cruz Biotechnology, Inc.). Binding to antibody was detected using enhanced chemiluminescence (Amersham International PLC).
# 2-5×10^6 cells were lysed after appropriate pretreatment in 500-1000 μl kinase lysis buffer and centrifuged at 14,000×g for 15 minutes at 4° C. Endogenous p38 was immunoprecipitated with polyclonal p38 antibody prebound to protein-A agarose for one hour at room temp. […]
# [4] = molecular target: T2, p38 MAPK (Homo sapiens, UniProt Q16539); assay: p38 MAPK activity in human PBMC's after addition of LPS; format: cell-based; settings: human PBMC's pretreated with compound
# T2 construct: endogenous in cells; host or cells: human PBMCs
# T2 sequence (Q16539 whole entry): as above
# From the text: (§2) This example illustrates an experiment showing that an exemplary guanylhydrazone-substituted compound, CNI-1493 (N,N′-bis(3,5-diacetylphenyl)decanediamide tetrakis(amidinohydrazone) tetrahydrochloride) inhibited the p38 MAP kinase pathway. […] Further evidence for the mechanism of translation suppression was given by experiments using constructs in which the 5′UTR and the 3′UTR of TNF to drive expression of a reporter molecule. Both the 5′UTR and the 3′UTR regions of the TNF gene were required to elicit maximal translation suppression by CNI-1493. The effect of CNI-1493 on p38 MAPK was next determined as p38 MAPK has been implicated in the regulation of TNF translation.
# [5] = system: TNF; assay: TNF production by macrophages activated by LPS; format: cell-based
# From the text: as §2
# [6] = system: MIP 1α and MIP 1β; assay: MIP-1α and MIP-1β levels by sandwich ELISA in HIV 1-LAV infected primary T cells; format: cell-based, human
# Experimental: Assays were done in triplicate and error bars represent standard deviation of the mean.
# Because ideal anti-HIV therapies would not interfere with the ability of the host to mount its own defense, it was also evaluated whether inhibition of the p38 MAP kinase signal transduction pathway inhibits chemokine production in T cells. Levels of MIP 1α and MIP 1β during LAV infection of primary T cells were not decreased by CNI-1493 (FIG. 4). MIP 1α and 1β levels dropped slightly late in HIV-1 infection (day 9).
# [7] = system: human T lymphocytes; assay: T lymphocyte activation measured by IL-2 synthesis after a-CD3 and a-CD28 stimulation; format: cell-based; settings: human T lymphocytes stimulated with a-CD3 and a CD28
# From the text: Without being limited by any theory regarding the mode of action of the multivalent guanylhydrazones, these compounds may work by disrupting the p38 MAPK pathway. p38 MAP kinase pathway plays a critical role in the activation of human T lymphocytes and this pathway is inhibited by the multivalent guanylhydrazone compounds. […] The activation of the p38 MAP kinase pathway was inhibited by the addition of a multivalent guanylhydrazone to the stimulated T lymphocytes. […] In addition, the assays of the present invention may include other in vivo assays to measure the effects of the test compounds on T cell activation. For example, test compounds may be assayed for their ability to inhibit activation of T cells. In such assays, test compounds may be added to T cells co-stimulated with a-CD3 and a-CD28. The stimulation of the T cells should result in the synthesis and secretion of cytokines, such as IL-2.
# [8] = system: p38 MAPK; assay: phospho-p38 MAPK levels in HIV-1 infected T cells (immunoprecipitation/immunoblot); format: cell-based, human
# Experimental: as §1
# T cells were infected with HIV 1-LAV in the presence of […] 18-mer, refed every 3-4 days with media containing fresh oligomer and supernatants collected at various time points for RT assay. Simultaneously, cells were also plated, treated similarly and harvested for phospho-p38 MAPK levels assayed by immunoprecipitation at various time points as measured by RT assay. Shown in this figure is the effect of addition of sense and antisense p38 MAPK oligonucleotide on phospho-p38 levels and its correlation with HIV replication, as measured by RT.
# Whole cell lysates were prepared using kinase lysis buffer containing a final concentration of 20 mM Tris pH 7.5, 10% glycerol, 1% Triton X-100, 0.137M NaCl, 25 mM B-glyceropliospliate. […]
# [9] = 1 μM 18-mer, day 7 and day 10 after infection, FIG. 3
compound,measurement,setting,value
CC(C)c1nc(CN(C)C(=O)N[C@H](C(=O)N[C@@H](Cc2ccccc2)C[C@H](O)[C@H](Cc2ccccc2)NC(=O)OCc2cncs2)C(C)C)cs1 [ABT-538],CD4 lymphocyte counts,[1],rise substantially
same,plasma HIV-1 levels,[1],decrease exponentially
"CC(=NNC(=N)N)c1cc(NC(=O)CCCCCCCCC(=O)Nc2cc(C(C)=NNC(=N)N)cc(C(C)=NNC(=N)N)c2)cc(C(C)=NNC(=N)N)c1.Cl.Cl.Cl.Cl [CNI-1493, N,N′-bis(3,5-diacetylphenyl)decanediamide tetrakis(amidinohydrazone) tetrahydrochloride]",IC50,"[2]; primary T cells activated with PHA, pretreated one hour, LAV strain of HIV, RT activity, FIG. 2B, read-out: IC50 of inhibition of HIV replication in T-cells",~500 nM
same,effect on anti-CD3 stimulated p38 MAPK activity,[3]; anti-CD3 alone,unaffected
same,inhibition of stimulated p38 MAPK activity,"[3]; anti-CD28 stimulation (as worded: stimulation of p38 MAPK), dose of 1.5 μM",approximately 50%
same,inhibition of p38 MAPK activity on co-stimulation with anti-CD3 and anti-CD28,[3]; dose of 1.5 μM,inhibited completely
same,p38 MAPK activity after the addition of LPS,[4],suppression of p38 MAPK activity
same,TNF production by macrophages activated by LPS,[5],inhibit TNF production
same,synthesis of 26 kDA membrane form of TNF,[5],blocked the synthesis
same,level of MIP 1α during LAV infection of primary T cells,[6]; FIG. 4,not decreased
same,level of MIP 1β during LAV infection of primary T cells,[6]; FIG. 4,not decreased
same,chemokine levels (MIP 1α and 1β) day 6,[6]; day 6 of HIV-1 infection,slightly elevated
same,chemokine levels (MIP 1α and 1β) day 9,[6]; day 9 of HIV-1 infection,normal
same,activation of T lymphocytes as measured by IL-2 synthesis,[7],inhibition of activation of the T lymphocytes
same,p38 MAP kinase activity in HIV-infected T cells,"[8]; 1 μM, FIGS. 2C, 2D",suppression of p38 MAP kinase activity
"p38 MAP kinase antisense oligonucleotides: 18-mer phosphothiorate oligonucleotide, antisense to bp 324-341 of human p38 MAPK, 5′GTCTTGTTCAGCTCCTGC3′",HIV replication as measured by RT,[2]; [9],decreased HIV replication
same,phospho-p38 MAPK activity,[8]; [9],decrease in phospho-p38 MAPK activity
